Measurements: ChEMBL document CHEMBL3864152, “Discovery of ursolic acid prodrug (NX-201): Pharmacokinetics and in vivo antitumor effects in PANC-1 pancreatic cancer” (Bioorg Med Chem Lett, 2016)
Each block holds one compound with its values, some of them ahead of it. Calls of active or inactive are those of the source. No cut-off for these calls is given here.

What was measured:
[1] = Dissociation constant, pKa of the compound; format: physicochemical
[2] = Tmax in rat at 0.5 mg/kg, iv; format: ADME, organism-based; settings: in vivo
[3] = Tmax in rat at 25 mg/kg, po; format: ADME, organism-based; settings: in vivo
[4] = Cmax in rat at 25 mg/kg, po; format: ADME, organism-based; parameters: dose 25 mg/kg, route oral; settings: in vivo
[5] = AUC in rat at 0.5 mg/kg, iv; format: ADME, organism-based; settings: in vivo
[6] = AUC in rat at 25 mg/kg, po; format: ADME, organism-based; settings: in vivo
[7] = Half life in rat at 0.5 mg/kg, iv; format: ADME, organism-based; settings: in vivo
[8] = Half life in rat at 25 mg/kg, po; format: ADME, organism-based; settings: in vivo
[9] = Oral bioavailability in rat at 25 mg/kg; format: ADME, organism-based; settings: in vivo
[10] = tested on: Mus musculus; assay: Toxicity in non-obese diabetic […] SCID mouse xenografted with human PANC1 cells assessed as change in body weight at 50 mg/kg, po administered daily for 4 weeks; format: organism-based, PANC-1; settings: in vivo, 672 h
[11] = in vivo; settings: rat, iv, 0.5 mg/kg
Description: Cmax in rat at 0.5 mg/kg, iv

[12] = Oral bioavailability in Sprague-Dawley rat at 25 mg/kg; format: ADME, organism-based; settings: in vivo
[13] = tested on: PANC-1; assay: Antitumor activity against human PANC1 cells xenografted in po dosed non-obese diabetic […] SCID mouse assessed as tumor growth inhibition administered daily for 4 weeks; format: functional, organism-based
[14] = tested on: PANC-1; assay: Antitumor activity against human PANC1 cells xenografted in non-obese diabetic […] SCID mouse assessed as tumor growth inhibition at 50 mg/kg, po administered daily measured after 3 weeks in presence of gemcitabine; format: functional, organism-based
[15] = tested on: Mus musculus; assay: Toxicity in non-obese diabetic […] SCID mouse xenografted with human PANC1 cells assessed as change in body weight at 25 to 100 mg/kg, po administered daily for 4 weeks; format: organism-based, PANC-1; settings: in vivo, 672 h
[16] = tested on: Mus musculus; assay: Toxicity in non-obese diabetic […] SCID mouse xenografted with human PANC1 cells assessed as change in body weight at 50 mg/kg, po administered daily for 4 weeks in presence of gemcitabine; format: organism-based, PANC-1; settings: in vivo, 672 h
[17] = tested on: PANC-1; assay: Antitumor activity against human PANC1 cells xenografted in non-obese diabetic […] SCID mouse assessed as tumor growth inhibition at 40 mg/kg, iv administered 2 times per week for 4 weeks; format: functional, organism-based
[18] = tested on: Mus musculus; assay: Toxicity in non-obese diabetic […] SCID mouse xenografted with human PANC1 cells assessed as change in body weight at 40 mg/kg, iv administered 2 times per week for 4 weeks; format: organism-based, PANC-1; settings: in vivo, 672 h

- pKa [1]: 5.29
- Tmax [2]: 4.8 min
- Tmax [3]: 15 min
- Cmax [4]: 1.9 ng/mL
- AUC [5]: 114 ng·h/mL
- AUC [6]: 0.6 ng·h/mL
- half-life [7]: 93 min
- half-life [8]: 18 min
- bioavailability [9]: < 0.01%
- Cmax [11]: 378 ng/mL
SMILES: C[C@H]1[C@H](C)CC[C@]2(C(=O)O)CC[C@]3(C)C(=CC[C@@H]4[C@@]5(C)CC[C@H](O)C(C)(C)[C@@H]5CC[C@]43C)[C@H]12 [URSOLIC ACID]
- Activity [10]: Non-Toxic

- bioavailability [12]: 0.7%
SMILES: CC1(C)CC[C@]2(C(=O)O)CC[C@]3(C)C(=CC[C@@H]4[C@@]5(C)CC[C@H](O)C(C)(C)[C@@H]5CC[C@]43C)[C@@H]2C1 [OLEANOLIC_ACID]

- Tmax [3]: 87.6 min
- Cmax [4]: 30.3 ng/mL
- AUC [6]: 132 ng·h/mL
- half-life [8]: 283 min
- bioavailability [9]: 2.3%
SMILES: Cc1oc(=O)oc1COC(=O)[C@]12CC[C@@H](C)[C@H](C)[C@H]1C1=CC[C@@H]3[C@@]4(C)CC[C@H](O)C(C)(C)[C@@H]4CC[C@@]3(C)[C@]1(C)CC2
- TGI [13]: Dose-dependent effect
- TGI [14]: Active
- Activity [15]: Non-Toxic
- Activity [16]: Non-Toxic

SMILES: Nc1ccn([C@@H]2O[C@H](CO)[C@@H](O)C2(F)F)c(=O)n1 [GEMCITABINE]
- TGI [17]: Active
- Activity [18]: Non-Toxic
